Values after ≈ are worked out from the molar mass of the structure shown. Where two headings read alike, the source gives them in different places.
Columns and labels:
[1] = Figure 1, cited from earlier work
[2] = Ferric reducing antioxidant power (FRAP) assay; type: biochemical; details: for FRAP assay (C0.5FRAP): mean ± SD, n = 3, concentration equivalent to FeSO4 at 0.5 mmol/L, 37°C, 30 min, 593 nm; for FRAP potency compared with standard reference BHT: in words, BHT C0.5FRAP = 546.0 ± 13.6 μM
Procedure: The FRAP reagent was prepared by the addition of freshly prepared 20.0 mM FeCl3.6H2O solution, 10.0 mM of […] (TPTZ) solution and 300 mM sodium acetate buffer (pH 3.6) in a ratio of 1:1:10 (v/v/v). After that, Sample (our synthesized 2-oxo-2-phenylethylidenes-linked 2-oxo-benzo[1,4]oxazines 20a-ab) was added to 3 ml of freshly prepared FRAP reagent and this reaction mixture was incubated at 37°C temperature for 30 min. and the absorbance was measured at 593 nm. It is also noted that, a freshly prepared solution of FeSO4 was used for calibration of standard curve. The FRAP antioxidant capability were evaluated in terms of C0.5FRAP (the antioxidant capability of samples related to their concentration, which is equivalent to that of FeSO4 at 0.5 mmol/L) (Benzie and Strain, [1996]).
The FRAP assay was deliberated using the method as illustrated by Benzie and Strain (Benzie and Strain, [1996]). […] The reducing nature of an antioxidant depends on their property to donate a hydrogen atom for the breaking of the free radical chain, which is responsible for oxidative stress etc.

[3] = DPPH radical scavenging antioxidant assay; type: biochemical; details: Table 1; mean ± SD, n = 3; 517 nm after 20 min
Procedure: In DPPH radical scavenging method the plant extract (0.75 mL) at different concentrations ranging from 10 to 100 μg mL^−1 was mixed with 1.5 mL of a DPPH methanolic solution (20 mg L^−1). Pure methanol was taken as control and ascorbic acid (vitamin C), vitamins A and E were used as a reference compounds. The absorbance was measured at 517 nm after 20 min of reaction. The % of DPPH decolouration of the sample was calculated according to the formula (Sharma and Bhat, [2009]).
Decolouration % = [1−(Abs SAMPLE/Abs CONTROL)]×100
The decolouration was plotted against the sample extract concentration and a logarithmic regression curve was established in order to calculate the IC50. The results are expressed as antiradical efficiency (AE), which is 1000-fold inverse of the IC50 value AE=1000/ IC50.

[4] = system: 3T3 fibroblast cell lines; test: in vitro; type: cell-based; details: mouse, 72 h, 250 μg/ml
Procedure: (§1) Cell toxicity of active C-3 tethered 2-oxo-benzo[1,4]oxazine analogs were accessed using 3T3 fibroblast cell lines in MTT assay via the reported protocol of Danihelová et al. ([2013]) [For details, see supporting information].
(§2) The cytotoxic effect of the active compounds prepared on cells was detected in vitro using the mitochondrial cytotoxic test according to Danihelová et al. (2013) with modifications. Cell viability was evaluated using thiazolyl blue tetrazolium bromide (MTT), which indicates the metabolic activity of cells. The experiment was performed in 96-well microplates. The cells were seeded at a density of 3.5×10^3 3T3 fibroblast cells per well. Samples were dissolved in DMSO (stock solution 10 […]
(§3) (concentration of DMSO 0.5%) and after 24 h they were added to the cells. Microplates were cultivated for 72 h in thermostat at 37 °C and 5% CO 2 atmosphere. After incubation thiazolyl blue tetrazolium bromide (3.33 mg/ml phosphate buffered saline, pH=7.4) was pipetted to each well and left to incubate for further two hours. Then the medium with MTT solution was removed. Formazan crystals in viable cells were dissolved in the lysis solution (4 mM HCl and 0.1% Nonidet P40 in ethanol). Microplates were shaken 15 min at 1500 rpm. Absorbance was measured at 540 nm and reference wavelength at 740 nm. Each value is the mean of 6 wells with standard deviation.
(§4) Inhibition activity was expressed as percentages of control with DMSO.

in vitro = type: cell-based; details: mouse, Cell viability (%)
Procedure: as §1, §2, §3, §4

[5] = ref Niemeyer, 2009, Adhikari et al., 2013, Glenska et al., 2015

Compound	% DPPH-scavenging activity [1, 5] [%]	IC50 (antioxidant activity) [1, 5] [µg/mL]	% DPPH-scavenging activity ([1]; ref Sáncheza et al., 2014) [%]	IC50 (antioxidant activity) ([1]; ref Harput et al., 2011) [µg/mL]	FRAP assay (C0.5FRAP) [2] [µM]	melting point [°C]	DPPH assay IC50 [3] [µg/mL]	Cell viability (%) [4] [%]	viability at 72 h, 25 μg/ml (in vitro) [%]	viability at 72 h, 50 μg/ml (in vitro) [%]	viability at 72 h, 100 μg/ml (in vitro) [%]	viability at 72 h, 250 μg/ml (in vitro) [%]	FRAP potency compared with standard reference BHT [2]
COc1ccc2c(c1)OC(O)C(=O)N2O (stereo not drawn) [Compound 1, DIMBOA]	98.57	11.31 (≈ 53.6 µM)	–	–	–	–	–	–	–	–	–	–	–
O=c1[nH]c2ccccc2c(=O)o1 [Compound 4, 2H-benzo[d][1,3]oxazine-2,4(1H)-dione]	–	–	17.2 ± 4.15	–	–	–	–	–	–	–	–	–	–
O=C1Nc2ccccc2OC1O (stereo not drawn) [Compound 5, 2-Hydroxy-1,4-benzoxazin-3(4H)-one]	–	–	–	39.29 (≈ 238 µM)	–	–	–	–	–	–	–	–	–
COc1ccc(C(=O)/C=C2\Nc3ccccc3OC2=O)cc1 [Compound 20b, (Z)-3-[2-(4-methoxy-phenyl)-2-oxo-ethylidene]-3,4-dihydro-benzo [1, 4] oxazin-2-one]	–	–	–	–	686.4 ± 30.8	200 to 203	6.89 ± 0.07	75.58	92.1	88.4	80.7	> 65	–
O=C1Oc2ccc([N+](=O)[O-])cc2N/C1=C\C(=O)c1ccccc1 [Compound 20t, (Z)-6-nitro-3-(2-oxo-2-phenylethylidene)-3,4-dihydro-2H-benzo[b][1,4]oxazin-2-one]	–	–	–	–	638.2 ± 32.6	198 to 200	4.74 ± 0.08	67.46	89.7	80.5	74.9	> 65	less active than BHT
O=C1Oc2cc([N+](=O)[O-])ccc2N/C1=C\C(=O)c1ccc(F)cc1 [Compound 20x, (Z)-3-(2-(4-fluorophenyl)-2-oxoethylidene)-7-nitro-3,4-dihydro-2H-benzo[b][1,4]oxazin-2-one]	–	–	–	–	628.6 ± 32.4	235 to 237	10.18 ± 0.1	73.91	95.5	86.7	81.1	> 65	–
O=C1Oc2cc([N+](=O)[O-])ccc2N/C1=C\C(=O)c1ccc(Cl)cc1Cl [Compound 20z, (Z)-3-(2-(2,4-dichlorophenyl)-2-oxoethylidene)-7-nitro-3,4-dihydro-2H-benzo[b][1,4]oxazin-2-one]	–	–	–	–	437.6 ± 39.4	208 to 210	28.8 ± 0.67	–	–	–	–	–	more potent than standard reference BHT

Reference: publication PMC5876303, “Discovery of C-3 Tethered 2-oxo-benzo[1,4]oxazines as Potent Antioxidants: Bio-Inspired Based Design, Synthesis, Biological Evaluation, Cytotoxic, and in Silico Molecular Docking Studies” (Frontiers in Chemistry, 2018)
